Laboratory results from paper PMC7230731 (Marine Drugs, 2020).

What was measured:
Assay type in all cases: cell-based, human
MCF-7 cells = assay: SRB antiproliferative assay, MCF-7; settings: for IC50: Homo sapiens, MCF7, 48 h, MCF-7 breast cancer cells, SRB assay, 48 h, mean ± S.D. of three experiments; for potency relative to Staurosporine, MCF-7: ratio of IC50 values, MCF-7 cells
Description: (§1) 1. Anti-proliferative action toward human breast cell lines […]
(§2) and non-tumorigenic human breast epithelial cell line (MCF-10A) have been obtained from American Type Culture Collection (ATCC). The cells were maintained in Dulbecco's modified Eagle's medium (DMEM) supplemented with 10% heat inactivated fetal calf serum (GIBCO), penicillin (100 U/ml) and streptomycin (100 µg/ml) at 37 °C in humidified atmosphere containing 5% CO2. […]
(§3) grown in a 25 cm2 flask in 5 ml of culture medium.
(§4) The anti-proliferative activity of the tested compounds was measured in vitro using the Sulfo-Rhodamine-B stain (SRB) assay. Briefly, Cells were inoculated in 96-well microtiter plate (5X104 cells/ well) for 24 h before treatment with the tested compounds to allow attachment of cell to the wall of the plate. Tested compounds were dissolved in DMSO at 1 mg/ml immediately before use and diluted to the appropriate volume just before addition to the cell culture. Different concentrations of tested compounds, doxorubicin and sorafenib were added to the cells (three wells were prepared for each […]
(§5) atmosphere of 5% CO2. After 48 h cells were fixed, washed, and stained for 30 min with 0.4% (w/v) SRB dissolved in 1% acetic acid. Unbound dye was removed by four washes with 1% acetic acid, and attached stain was recovered with Tris-EDTA buffer. Color intensity was measured in an ELISA reader. The relation between percent of surviving fraction and drug concentration is plotted to get the survival curve for each cell line. […]

MDA-MB-231 cells = assay: SRB antiproliferative assay, MDA-MB-231; settings: for IC50: Homo sapiens, MDA-MB-231, 48 h, MDA-MB-231 triple-negative breast cancer cells, SRB assay, 48 h, mean ± S.D. of three experiments
Description: as §1, §2, §3, §4, §5

MCF-10A cells = assay: SRB cytotoxicity assay, non-tumorigenic MCF-10A; settings: for Selectivity Index MCF-10A/MCF-7: IC50 MCF-10A / IC50 MCF-7; for IC50: non-tumorigenic human breast epithelial MCF-10A cells, SRB assay
Excerpt: The two examined human breast cancer cell lines (MCF-7 and Breast MDA-MB-231), and non-tumorigenic human breast epithelial cell line (MCF-10A) have been obtained from the American Type Culture Collection (ATCC). Assessment of cytotoxicity for target indole derivatives has been performed following the SRB colorimetric assay procedures, as reported earlier.
1. Anti-proliferative action toward human breast cell lines
The two examined human breast cancer cell lines (MCF-7 and Breast MDA-MB-231), and non-tumorigenic human breast epithelial cell line (MCF-10A) have been obtained from American Type Culture Collection (ATCC). The cells were maintained in Dulbecco's modified Eagle's medium (DMEM) supplemented with 10% heat inactivated fetal calf serum (GIBCO), penicillin (100 U/ml) and streptomycin (100 µg/ml) at 37 °C in humidified atmosphere containing 5% CO2. Cells at a concentration of 0.50 x 106 were grown in a 25 cm2 flask in 5 ml of culture medium.
The anti-proliferative activity of the tested compounds was measured in vitro using the Sulfo-Rhodamine-B stain (SRB) assay. Briefly, Cells were inoculated in 96-well microtiter plate (5X104 cells/ well) for 24 h before treatment with the tested compounds to allow attachment of cell to the wall of the plate. Tested compounds were dissolved in DMSO at 1 mg/ml immediately before use and diluted to the appropriate volume just before addition to the cell culture. Different concentrations of tested compounds, doxorubicin and sorafenib were added to the cells (three wells were prepared for each individual dose). Cells were incubated with the compounds for 48 h at 37°C and in atmosphere of 5% CO2. After 48 h cells were fixed, washed, and stained for 30 min with 0.4% (w/v) SRB dissolved in 1% acetic acid. Unbound dye was removed by four washes with 1% acetic acid, and attached stain was recovered with Tris-EDTA buffer. Color intensity was measured in an ELISA reader. The relation between percent of surviving fraction and drug concentration is plotted to get the survival curve for each cell line. […]

Bax = assay: ELISA immunoassay, Bax level; settings: MCF-7 cells; for Bax: IC50 concentration, 48 h
Excerpt: Synchronization of the mitochondrial pathway is headed by the Bcl-2 family of proteins. These proteins are classified into two groups: anti-apoptotic proteins exemplified by Bcl-2 protein and the counteracting pro-apoptotic proteins including Bax protein [21]. As induction of the apoptotic machinery is one of the most useful strategies in cancer therapy, we investigated the effect of our compounds to boost the pro-apoptotic protein; Bax and reduce the anti-apoptotic protein; Bcl-2 in an attempt to explore the underlying mechanism for their cytotoxic activity (Table 1). […] Fortunately, both compounds markedly boosted the level of Bax by 8.3- and 6.4-fold, respectively (Table 4, Figure 3).
(§6) Effects of treatment of breast cancer MCF-7 cells with bis-indoles 7e and 9a on the expression levels of the pro-apoptotic markers (Bax, caspase-3, and p53) in addition to the anti-apoptotic protein Bcl-2 marker was assessed by the use of ELISA colorimetric kits as per the manufacturer’s instructions, as described earlier.
(§7) The levels of the pro-apoptotic markers (Bax, caspase-3 and p53) as well as the anti-apoptotic marker Bcl-2 were determined using ELISA colorimetric kits per the manufacturer’s instructions. Breast cancer MCF-7 cells were cultured as a monolayer in T-25 flasks and were seeded to attain 30% confluency prior to treatment. Cells were […]
(§8) At the end of treatment, cells were collected via trypsinization and centrifuged at 10,000 rpm. The pellet was then rinsed with PBS and lysed in RIPA lysis buffer at 4 °C for 45 min, then centrifuged at 14,000 rpm for 20 min to remove the cellular debris. Lysates were then collected and stored at −80 °C for later protein determination using Pierce BCA Protein Assay Kit according to manufacturer’s recommendations.
(§9) The cell lysate was diluted 10 times, and 100 μL ([…]) was added to the wells of four separate microtiter plates for the four ELISA kits that were pre-coated with primary antibodies specific to Bax, Bcl-2, caspase-3 and p53 proteins, respectively. A secondary biotin-linked antibody specific to the protein captured by the primary antibody was further added to bind the captured protein, forming a “sandwich” of specific antibodies around the desired protein in the cell lysate. The streptavidin-HRP complex was then used to bind the biotin-linked secondary antibody through its streptavidin portion. The HRP domain reacted with the added TMB substrate to form a colored product that measured at 450 nm by a plate reader ChroMate-4300 after the reaction was terminated via the addition of stop solution. […]
Breast […]
cancer MCF-7 cells were cultured to a monolayer then treated with bis-indoles 7e and 9a at their IC50 concentration. […]

p53 = assay: ELISA immunoassay, p53 level; settings: MCF-7 cells; for p53: IC50 concentration, 48 h
Description: Moreover, their effect on the level of caspase-3; the executioner caspase and p53 was evaluated in the MCF-7 cell line. […] In addition, they augmented the level of p53 by 15.4- and 11.75-fold, respectively in comparison to the control (Table 5, Figure 3).
as §6, §7, §8, §9

IC50 (MCF-7 cells)	IC50 (MDA-MB-231 cells)	Compound	potency relative to Staurosporine, MCF-7 (MCF-7 cells)	potency relative to Staurosporine, MDA-MB-231 (MDA-MB-231 cells; ratio of IC50 values, MDA-MB-231 cells)	Selectivity Index MCF-10A/MCF-7 (MCF-10A cells)	IC50 (MCF-10A cells)	increase of Bax level vs control (Bax)	Bax (Bax)	increase of p53 level vs control (p53)	p53 (p53)
0.44 ± 0.01 µM	1.32 ± 0.03 µM	O=C(Cc1c[nH]c2ccccc12)NN=C1C(=O)Nc2ccc([N+](=O)[O-])cc21 [Compound 7e, 2-(1H-Indol-3-yl)-N′-(5-nitro-2-oxoindolin-3-ylidene)acetohydrazide]	15.5 times	7.8 times	38.7	17.1 µM	8.3 fold	318.0 ± 10.5 pg/mg of Total Protein	15.4 fold	631.8 ± 35.8 pg/mg
1.28 ± 0.04 µM	18.2 ± 0.62 µM	C=CCN1C(=O)C(=NNC(=O)Cc2c[nH]c3ccccc23)c2ccccc21 [Compound 9a, N′-(1-Allyl-2-oxoindolin-3-ylidene)-2-(1H-indol-3-yl)acetohydrazide]	5.3 times	–	18.3	23.5 µM	6.4 fold	243.6 ± 12.4 pg/mg of Total Protein	11.75 fold	482.3 ± 27.4 pg/mg
